# Like-named read-outs stand apart in the source and are kept apart here.
# System: HIV
# Conditions: for HIV p24 protein in culture supernatants: CEM cells
# Description: This example describes one method of inactivation of the purified virus according to the invention by crosslinking of surface proteins. […] Titrations of the fixative were preformed above and below the concentration recommended by the CDC for inactivation of virus in biological fluids (May 8, 1992/41 (RR-8); 001 CDC Guidelines for the Performance of CD4+ T-Cell Determinations in Persons with Human Immunodeficiency Virus Infection). Initially, purified virus was slowly thawed at 2-8° C. for 6-8 hours to minimize lysis of the virus. Next, while on ice, virus was diluted with cold PBS to a final concentration of approximately 1×10^10 copies/mL (cp/mL). […] The reaction mixtures were then incubated at 2-8° C. for 60 minutes while gently rocking. […] After the addition of glycine the reactions were gently rocked for 2 hr. at 2-8° C. To remove glycine and any excess unquenched fixative each reaction mixture was then dialyzed (10-14K m.w. cutoff) against 1 L PBS (pH 7.4, 2-8° C.) for 4 changes. Dialyzed virus was then transferred into a 15 mL tube and centrifuged for 10 min. at 3,000×g to pellet any precipitated virus. A sample of each supernatant was then tested in cell culture for the presence of infectious virus.
# The modified virus produced as described in Example 2 was tested to ensure the process inactivated the virus. As an illustration, the CEM cell line, obtained from the American Type Culture Collection was used as a host cell for viral infectivity studies. Advantages of using this line are that establishment of in vitro HIV infection requires relatively few virions and that the infection is chronic rather than lytic, facilitating analysis. For these studies, infection is detected and followed using the ZeptoMetrix HIV p24 Antigen EIA (ZeptoMetrix, Buffalo N.Y.).
# CEM cells are cultured in RPMI-1640 containing 10% FBS in 24 well plates Cells are plated at 10^5 cells per well in a 1 ml volume and 100 ul of various dilutions of virus, either treated or untreated, are added to individual wells. Cultures are fed twice weekly by 50% media replacement and culture supernatants are assayed for HIV p24. All cultures initially contain HIV p24. However, in cultures where virus is noninfectious HIV p24 levels decrease over time eventually reaching background levels.
# Different dilutions (1:8,000, 1:80,000, and 1:800,000) of treated virus were then placed into cultures of CEM cells and p24 assays were performed on culture supernatants on days 3, 7, 10, and 14 post-inoculation. Data are expressed as pg/ml of HIV p24 protein in the culture supernatants. The standard curve for the p24 assay is linear from 7.8 pg/ml to 125 pg/ml. HIV p24 concentrations below 7.8 pg/ml are expressed as “<7.8 pg/ml” to indicate sensitivity of the assay, and values above 125 pg/ml are expressed as “>125 pg/ml” since the assay is nonlinear above 125 pg/ml.
substance,measurement,setting,value
paraformaldehyde,HIV p24 protein in culture supernatants,"5.0% paraformaldehyde 60 min, treated HIV diluted 1:800,000, 10 days post-inoculation",<7.8 pg/mL
same,HIV p24 protein in culture supernatants,"5.0% paraformaldehyde 60 min, treated HIV diluted 1:800,000, 14 days post-inoculation",<7.8 pg/mL
same,HIV p24 protein in culture supernatants,"exposure time 15 minutes, treated HIV diluted 1:8,000, 3 days post-inoculation",>125 pg/mL
same,HIV p24 protein in culture supernatants,"exposure time 15 minutes, treated HIV diluted 1:8,000, 7 days post-inoculation",>125 pg/mL
same,HIV p24 protein in culture supernatants,"exposure time 15 minutes, treated HIV diluted 1:8,000, 10 days post-inoculation",43.9 pg/mL
same,HIV p24 protein in culture supernatants,"exposure time 15 minutes, treated HIV diluted 1:8,000, 14 days post-inoculation",<7.8 pg/mL
same,HIV p24 protein in culture supernatants,"exposure time 15 minutes, treated HIV diluted 1:80,000, 3 days post-inoculation",27.9 pg/mL
same,HIV p24 protein in culture supernatants,"exposure time 15 minutes, treated HIV diluted 1:80,000, 7 days post-inoculation",18.0 pg/mL
same,HIV p24 protein in culture supernatants,"exposure time 15 minutes, treated HIV diluted 1:80,000, 10 days post-inoculation",<7.8 pg/mL
same,HIV p24 protein in culture supernatants,"exposure time 15 minutes, treated HIV diluted 1:80,000, 14 days post-inoculation",<7.8 pg/mL
same,HIV p24 protein in culture supernatants,"exposure time 15 minutes, treated HIV diluted 1:800,000, 3 days post-inoculation",<7.8 pg/mL
same,HIV p24 protein in culture supernatants,"exposure time 15 minutes, treated HIV diluted 1:800,000, 7 days post-inoculation",<7.8 pg/mL
same,HIV p24 protein in culture supernatants,"exposure time 15 minutes, treated HIV diluted 1:800,000, 10 days post-inoculation",<7.8 pg/mL
same,HIV p24 protein in culture supernatants,"exposure time 15 minutes, treated HIV diluted 1:800,000, 14 days post-inoculation",<7.8 pg/mL
same,HIV p24 protein in culture supernatants,"exposure time 30 minutes, treated HIV diluted 1:8,000, 3 days post-inoculation",>125 pg/mL
same,HIV p24 protein in culture supernatants,"exposure time 30 minutes, treated HIV diluted 1:8,000, 7 days post-inoculation",>125 pg/mL
same,HIV p24 protein in culture supernatants,"exposure time 30 minutes, treated HIV diluted 1:8,000, 10 days post-inoculation",46.2 pg/mL
same,HIV p24 protein in culture supernatants,"exposure time 30 minutes, treated HIV diluted 1:8,000, 14 days post-inoculation",<7.8 pg/mL
same,HIV p24 protein in culture supernatants,"exposure time 30 minutes, treated HIV diluted 1:80,000, 3 days post-inoculation",22.6 pg/mL
same,HIV p24 protein in culture supernatants,"exposure time 30 minutes, treated HIV diluted 1:80,000, 7 days post-inoculation",10.3 pg/mL
same,HIV p24 protein in culture supernatants,"exposure time 30 minutes, treated HIV diluted 1:80,000, 10 days post-inoculation",<7.8 pg/mL
same,HIV p24 protein in culture supernatants,"exposure time 30 minutes, treated HIV diluted 1:80,000, 14 days post-inoculation",<7.8 pg/mL
same,HIV p24 protein in culture supernatants,"exposure time 30 minutes, treated HIV diluted 1:800,000, 3 days post-inoculation",<7.8 pg/mL
same,HIV p24 protein in culture supernatants,"exposure time 30 minutes, treated HIV diluted 1:800,000, 7 days post-inoculation",<7.8 pg/mL
same,HIV p24 protein in culture supernatants,"exposure time 30 minutes, treated HIV diluted 1:800,000, 10 days post-inoculation",<7.8 pg/mL
same,HIV p24 protein in culture supernatants,"exposure time 30 minutes, treated HIV diluted 1:800,000, 14 days post-inoculation",<7.8 pg/mL
same,HIV p24 protein in culture supernatants,"exposure time 60 minutes, treated HIV diluted 1:8,000, 3 days post-inoculation",>125 pg/mL
same,HIV p24 protein in culture supernatants,"exposure time 60 minutes, treated HIV diluted 1:8,000, 7 days post-inoculation",>125 pg/mL
same,HIV p24 protein in culture supernatants,"exposure time 60 minutes, treated HIV diluted 1:8,000, 10 days post-inoculation",87.4 pg/mL
same,HIV p24 protein in culture supernatants,"exposure time 60 minutes, treated HIV diluted 1:8,000, 14 days post-inoculation",<7.8 pg/mL
same,HIV p24 protein in culture supernatants,"exposure time 60 minutes, treated HIV diluted 1:80,000, 3 days post-inoculation",59.8 pg/mL
same,HIV p24 protein in culture supernatants,"exposure time 60 minutes, treated HIV diluted 1:80,000, 7 days post-inoculation",36.0 pg/mL
same,HIV p24 protein in culture supernatants,"exposure time 60 minutes, treated HIV diluted 1:80,000, 10 days post-inoculation",<7.8 pg/mL
same,HIV p24 protein in culture supernatants,"exposure time 60 minutes, treated HIV diluted 1:80,000, 14 days post-inoculation",<7.8 pg/mL
same,HIV p24 protein in culture supernatants,"exposure time 60 minutes, treated HIV diluted 1:800,000, 3 days post-inoculation",<7.8 pg/mL
same,HIV p24 protein in culture supernatants,"exposure time 60 minutes, treated HIV diluted 1:800,000, 7 days post-inoculation",<7.8 pg/mL
same,HIV p24 protein in culture supernatants,"exposure time 60 minutes, treated HIV diluted 1:800,000, 10 days post-inoculation",<7.8 pg/mL
same,HIV p24 protein in culture supernatants,"exposure time 60 minutes, treated HIV diluted 1:800,000, 14 days post-inoculation",<7.8 pg/mL
same,HIV p24 protein in culture supernatants,"exposure time Overnight, treated HIV diluted 1:8,000, 3 days post-inoculation",>125 pg/mL
same,HIV p24 protein in culture supernatants,"exposure time Overnight, treated HIV diluted 1:8,000, 7 days post-inoculation",>125 pg/mL
same,HIV p24 protein in culture supernatants,"exposure time Overnight, treated HIV diluted 1:8,000, 10 days post-inoculation",27.6 pg/mL
same,HIV p24 protein in culture supernatants,"exposure time Overnight, treated HIV diluted 1:8,000, 14 days post-inoculation",<7.8 pg/mL
same,HIV p24 protein in culture supernatants,"exposure time Overnight, treated HIV diluted 1:80,000, 3 days post-inoculation",16.3 pg/mL
same,HIV p24 protein in culture supernatants,"exposure time Overnight, treated HIV diluted 1:80,000, 7 days post-inoculation",17.5 pg/mL
same,HIV p24 protein in culture supernatants,"exposure time Overnight, treated HIV diluted 1:80,000, 10 days post-inoculation",<7.8 pg/mL
same,HIV p24 protein in culture supernatants,"exposure time Overnight, treated HIV diluted 1:80,000, 14 days post-inoculation",<7.8 pg/mL
same,HIV p24 protein in culture supernatants,"exposure time Overnight, treated HIV diluted 1:800,000, 3 days post-inoculation",<7.8 pg/mL
same,HIV p24 protein in culture supernatants,"exposure time Overnight, treated HIV diluted 1:800,000, 7 days post-inoculation",<7.8 pg/mL
same,HIV p24 protein in culture supernatants,"exposure time Overnight, treated HIV diluted 1:800,000, 10 days post-inoculation",<7.8 pg/mL
same,HIV p24 protein in culture supernatants,"exposure time Overnight, treated HIV diluted 1:800,000, 14 days post-inoculation",<7.8 pg/mL
same,amounts of p24 in the culture supernatants,"treatment of virus with paraformaldehyde, by day 14",non-detectable
